From ChEMBL document CHEMBL1201862, “PubChem BioAssay data set” (2004)
The source made the active and inactive calls.

Legend:
[1] = molecular target: Voltage-dependent T-type calcium channel subunit alpha-1H (Homo sapiens, UniProt O95180); assay type: functional;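 also: channel activity triggered by adding a high calcium stimulation buffer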
[2] = molecular target: T1, Endoribonuclease toxin MazF (Escherichia coli K-12, UniProt P0AE70); test: activation of MazEF endoribonuclease cleavage – biochemical, fluorescence, single-stranded RNA substrate, uHTS hits, dose response (AID 588481); assay type: functional
T1 sequence (P0AE70 whole entry): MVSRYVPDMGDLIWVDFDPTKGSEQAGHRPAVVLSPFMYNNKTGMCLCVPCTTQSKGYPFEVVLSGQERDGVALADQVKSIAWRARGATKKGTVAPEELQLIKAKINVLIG

[3] = molecular target: T1, Endoribonuclease toxin MazF; test: substrate-only fluorescence increase artefacts – biochemical, single-stranded RNase substrate, counter-screen for MazEF activator project, dose response (AID 588502); assay type: functional
[4] = molecular target: T2, Corticotropin-releasing factor receptor 2/Corticotropin-releasing factor-binding protein (Homo sapiens, UniProt P24387+Q13324); test: activators of CRF receptor 2 with binding protein – uHTS hits, confirmation (AID 602473); assay type: functional; conditions: read-out: EC50_Mean
T2 sequence (Q13324 whole entry): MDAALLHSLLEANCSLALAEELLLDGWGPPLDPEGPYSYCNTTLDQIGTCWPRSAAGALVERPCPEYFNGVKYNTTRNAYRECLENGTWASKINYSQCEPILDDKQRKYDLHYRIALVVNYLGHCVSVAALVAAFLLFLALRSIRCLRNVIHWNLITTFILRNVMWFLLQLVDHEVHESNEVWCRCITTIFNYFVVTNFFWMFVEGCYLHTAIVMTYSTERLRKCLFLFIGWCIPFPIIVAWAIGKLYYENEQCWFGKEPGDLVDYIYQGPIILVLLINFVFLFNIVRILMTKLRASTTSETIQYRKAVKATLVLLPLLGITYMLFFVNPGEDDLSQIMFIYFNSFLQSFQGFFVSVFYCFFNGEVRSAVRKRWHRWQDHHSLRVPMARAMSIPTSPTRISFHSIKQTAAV
T2 sequence (P24387 whole entry): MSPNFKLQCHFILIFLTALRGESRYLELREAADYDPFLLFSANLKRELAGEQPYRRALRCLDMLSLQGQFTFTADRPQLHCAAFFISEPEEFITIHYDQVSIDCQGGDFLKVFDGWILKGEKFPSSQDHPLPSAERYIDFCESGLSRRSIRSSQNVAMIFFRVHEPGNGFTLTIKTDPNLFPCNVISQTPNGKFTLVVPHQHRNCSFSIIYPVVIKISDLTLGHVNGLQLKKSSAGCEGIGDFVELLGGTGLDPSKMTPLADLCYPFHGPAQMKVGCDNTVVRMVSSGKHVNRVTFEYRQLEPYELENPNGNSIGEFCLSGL

[5] = molecular target: T3, RNA-binding protein pos-1 (Caenorhabditis elegans, UniProt G5EF15); test: disruptors of C. elegans POS-1 RNA interaction – biochemical, fluorescence polarization, dose response (AID 1964);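 also: purified POS-1 fused to maltose binding protein made in E. coli; potency of compounds blocking POS-1 binding to fluorescent RNA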
T3 sequence (G5EF15 whole entry): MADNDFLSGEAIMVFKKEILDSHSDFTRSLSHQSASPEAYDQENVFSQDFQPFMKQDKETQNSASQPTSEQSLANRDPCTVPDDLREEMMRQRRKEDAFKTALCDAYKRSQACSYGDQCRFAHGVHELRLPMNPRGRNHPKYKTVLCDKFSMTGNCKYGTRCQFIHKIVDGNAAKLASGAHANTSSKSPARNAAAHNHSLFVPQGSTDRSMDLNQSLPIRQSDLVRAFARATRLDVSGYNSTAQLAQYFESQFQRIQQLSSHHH

[6] = molecular target: T4, Zinc finger protein mex-5 (Caenorhabditis elegans, UniProt Q9XUB2); test: potency of MEX-5 RNA-binding blockers – biochemical, C. elegans, fluorescence polarization, dose response (AID 1960)
T4 sequence (Q9XUB2 whole entry): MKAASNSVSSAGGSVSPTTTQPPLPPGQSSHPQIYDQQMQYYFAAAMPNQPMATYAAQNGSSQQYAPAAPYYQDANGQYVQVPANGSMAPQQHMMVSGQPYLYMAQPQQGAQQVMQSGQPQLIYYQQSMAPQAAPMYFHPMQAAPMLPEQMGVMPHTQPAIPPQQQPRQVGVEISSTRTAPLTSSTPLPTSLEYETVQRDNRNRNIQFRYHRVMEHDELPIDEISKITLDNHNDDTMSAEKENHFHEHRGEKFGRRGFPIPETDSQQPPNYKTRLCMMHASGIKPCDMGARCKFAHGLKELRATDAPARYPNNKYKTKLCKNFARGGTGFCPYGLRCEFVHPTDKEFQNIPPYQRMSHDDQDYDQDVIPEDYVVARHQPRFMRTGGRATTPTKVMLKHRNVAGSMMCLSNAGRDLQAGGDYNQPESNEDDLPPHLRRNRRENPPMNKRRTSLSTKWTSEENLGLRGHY

[7] = cells; assay type: functional, cell-based
[8] = cells; assay type: functional, cell-based; remark: listed apart in the source
[9] = molecular target: Genome polyprotein (dengue virus type 2, UniProt P29990); test: flavivirus cap methylation enzyme inhibition – biochemical, confirmation dose response, primary screen (AID 588689); assay type: functional
[10] = molecular target: Large T antigen (Simian virus 40, UniProt P03070); assay type: functional, Betapolyomavirus macacae;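 also: Confirmatory-stage PubChem screen for compounds that inhibit SV40 T antigen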
[11] = test system: HEK293; test: cells; assay type: functional, cell-based; conditions: Homo sapiens
[12] = test system: HEK293; test: cells; assay type: functional, cell-based; conditions: Homo sapiens; remark: listed apart in the source
[13] = test system: HEK293; test: NOD2 signaling inhibitors in MDP-stimulated cells, cell-based, uHTS, luminescence (AID 2001); assay type: functional; conditions: Homo sapiens
[14] = molecular target: 26S proteasome non-ATPase regulatory subunit 14 (Homo sapiens, UniProt O00487); test: inhibition of proteasome subunit RPN11 – biochemical, fluorescence polarization, uHTS hits, confirmation (AID 602368); assay type: functional
[15] = molecular target: 72 kDa type IV collagenase (Homo sapiens, UniProt P08253); test: Dose Response validation of uHTS RPN11 inhibitor hits using a MMP-2 Fluorescence assay.; assay type: functional
[16] = molecular target: Prothrombin (Bos taurus, UniProt P00735); test: thrombin protease inhibitors – biochemical, fluorescence polarization, uHTS hits, dose response (AID 602369); assay type: functional
[17] = molecular target: Heat shock protein HSP 90-alpha (Homo sapiens, UniProt P07900); assay type: functional, organism-based

Chain of Voltage-dependent T-type calcium channel subunit alpha-1H (O95180 whole entry): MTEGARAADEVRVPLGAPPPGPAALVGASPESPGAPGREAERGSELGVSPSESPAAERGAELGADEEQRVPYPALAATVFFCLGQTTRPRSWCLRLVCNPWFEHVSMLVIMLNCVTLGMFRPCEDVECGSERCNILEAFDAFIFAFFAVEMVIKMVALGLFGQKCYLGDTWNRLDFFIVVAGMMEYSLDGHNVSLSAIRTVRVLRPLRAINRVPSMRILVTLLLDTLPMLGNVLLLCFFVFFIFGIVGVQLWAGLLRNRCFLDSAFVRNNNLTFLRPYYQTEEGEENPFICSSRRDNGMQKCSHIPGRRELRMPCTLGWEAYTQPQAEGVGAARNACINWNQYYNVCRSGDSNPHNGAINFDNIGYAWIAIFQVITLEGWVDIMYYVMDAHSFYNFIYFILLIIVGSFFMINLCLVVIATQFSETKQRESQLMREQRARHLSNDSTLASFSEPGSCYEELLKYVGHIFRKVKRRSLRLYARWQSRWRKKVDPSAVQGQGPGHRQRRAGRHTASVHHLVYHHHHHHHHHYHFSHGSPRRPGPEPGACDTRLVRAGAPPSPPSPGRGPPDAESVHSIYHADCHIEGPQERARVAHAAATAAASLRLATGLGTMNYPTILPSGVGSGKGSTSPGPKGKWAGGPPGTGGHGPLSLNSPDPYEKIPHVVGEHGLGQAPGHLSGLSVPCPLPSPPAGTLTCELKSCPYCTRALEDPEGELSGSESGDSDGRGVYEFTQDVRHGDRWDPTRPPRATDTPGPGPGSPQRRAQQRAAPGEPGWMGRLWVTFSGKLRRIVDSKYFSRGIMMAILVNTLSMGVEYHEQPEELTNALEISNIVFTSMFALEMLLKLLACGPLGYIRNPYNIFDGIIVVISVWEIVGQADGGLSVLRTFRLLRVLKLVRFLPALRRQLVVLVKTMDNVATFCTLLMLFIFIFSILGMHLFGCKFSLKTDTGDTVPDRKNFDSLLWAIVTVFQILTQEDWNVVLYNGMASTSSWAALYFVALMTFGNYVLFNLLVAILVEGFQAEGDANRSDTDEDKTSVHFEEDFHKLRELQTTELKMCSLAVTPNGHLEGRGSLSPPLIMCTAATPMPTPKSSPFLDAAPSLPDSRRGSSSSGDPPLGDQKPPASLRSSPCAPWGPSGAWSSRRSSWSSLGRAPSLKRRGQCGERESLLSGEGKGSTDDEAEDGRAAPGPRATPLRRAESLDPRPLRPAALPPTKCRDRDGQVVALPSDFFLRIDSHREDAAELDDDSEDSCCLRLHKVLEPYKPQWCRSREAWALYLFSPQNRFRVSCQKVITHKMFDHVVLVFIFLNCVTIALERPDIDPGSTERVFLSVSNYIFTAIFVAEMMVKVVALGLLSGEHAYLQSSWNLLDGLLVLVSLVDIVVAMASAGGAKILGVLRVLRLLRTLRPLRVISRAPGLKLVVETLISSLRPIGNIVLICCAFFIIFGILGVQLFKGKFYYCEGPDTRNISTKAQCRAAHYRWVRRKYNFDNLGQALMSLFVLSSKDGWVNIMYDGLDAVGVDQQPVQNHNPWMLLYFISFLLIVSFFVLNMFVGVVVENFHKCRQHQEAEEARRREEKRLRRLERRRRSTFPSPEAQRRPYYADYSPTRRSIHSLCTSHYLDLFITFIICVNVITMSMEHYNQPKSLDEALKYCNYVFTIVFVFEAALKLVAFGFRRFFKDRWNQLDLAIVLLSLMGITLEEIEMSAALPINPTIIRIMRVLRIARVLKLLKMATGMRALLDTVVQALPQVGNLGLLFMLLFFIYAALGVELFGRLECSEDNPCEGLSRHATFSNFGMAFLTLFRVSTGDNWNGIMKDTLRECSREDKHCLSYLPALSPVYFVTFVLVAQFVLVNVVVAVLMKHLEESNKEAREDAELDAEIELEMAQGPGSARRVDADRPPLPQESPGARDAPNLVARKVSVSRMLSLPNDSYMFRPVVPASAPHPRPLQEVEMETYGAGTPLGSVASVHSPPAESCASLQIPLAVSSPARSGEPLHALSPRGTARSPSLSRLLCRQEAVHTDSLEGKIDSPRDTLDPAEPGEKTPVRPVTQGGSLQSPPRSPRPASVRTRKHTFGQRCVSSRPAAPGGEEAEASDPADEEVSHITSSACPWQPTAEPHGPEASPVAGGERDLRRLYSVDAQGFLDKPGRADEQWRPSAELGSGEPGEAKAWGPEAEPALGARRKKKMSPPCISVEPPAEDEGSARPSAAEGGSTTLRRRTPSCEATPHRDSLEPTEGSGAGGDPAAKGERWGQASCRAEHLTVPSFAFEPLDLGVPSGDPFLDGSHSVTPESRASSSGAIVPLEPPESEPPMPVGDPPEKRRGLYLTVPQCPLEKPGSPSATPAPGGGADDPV
Chain of 26S proteasome non-ATPase regulatory subunit 14 (O00487 whole entry): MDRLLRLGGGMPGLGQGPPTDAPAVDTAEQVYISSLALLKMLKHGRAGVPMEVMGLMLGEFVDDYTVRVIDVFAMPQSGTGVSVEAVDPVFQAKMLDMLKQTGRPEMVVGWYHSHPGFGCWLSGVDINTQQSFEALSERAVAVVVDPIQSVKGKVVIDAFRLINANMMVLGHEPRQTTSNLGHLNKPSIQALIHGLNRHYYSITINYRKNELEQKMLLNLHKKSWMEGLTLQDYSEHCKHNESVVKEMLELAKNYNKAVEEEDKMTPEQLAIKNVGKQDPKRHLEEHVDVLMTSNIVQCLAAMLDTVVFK
Chain of Large T antigen (P03070 whole entry): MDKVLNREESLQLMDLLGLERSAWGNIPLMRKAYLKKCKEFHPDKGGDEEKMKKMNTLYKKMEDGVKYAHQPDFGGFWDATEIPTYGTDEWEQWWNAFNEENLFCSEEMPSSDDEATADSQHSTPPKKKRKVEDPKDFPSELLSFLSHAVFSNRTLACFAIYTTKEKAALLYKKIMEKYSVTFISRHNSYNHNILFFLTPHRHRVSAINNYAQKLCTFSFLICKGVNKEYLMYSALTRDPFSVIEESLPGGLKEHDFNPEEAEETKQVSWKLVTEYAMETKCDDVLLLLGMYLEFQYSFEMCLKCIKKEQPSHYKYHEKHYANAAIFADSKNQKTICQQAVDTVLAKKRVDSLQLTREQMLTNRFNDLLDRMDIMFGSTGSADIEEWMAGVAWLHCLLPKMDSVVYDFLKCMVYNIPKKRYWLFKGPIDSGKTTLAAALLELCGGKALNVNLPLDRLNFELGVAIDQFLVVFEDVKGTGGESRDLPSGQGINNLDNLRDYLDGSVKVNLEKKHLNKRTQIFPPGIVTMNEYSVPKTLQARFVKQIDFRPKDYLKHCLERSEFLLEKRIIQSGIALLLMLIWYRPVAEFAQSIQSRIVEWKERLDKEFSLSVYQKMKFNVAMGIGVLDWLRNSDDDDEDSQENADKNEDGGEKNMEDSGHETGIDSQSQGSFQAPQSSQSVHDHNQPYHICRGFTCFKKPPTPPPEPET
Chain of 72 kDa type IV collagenase (P08253 whole entry): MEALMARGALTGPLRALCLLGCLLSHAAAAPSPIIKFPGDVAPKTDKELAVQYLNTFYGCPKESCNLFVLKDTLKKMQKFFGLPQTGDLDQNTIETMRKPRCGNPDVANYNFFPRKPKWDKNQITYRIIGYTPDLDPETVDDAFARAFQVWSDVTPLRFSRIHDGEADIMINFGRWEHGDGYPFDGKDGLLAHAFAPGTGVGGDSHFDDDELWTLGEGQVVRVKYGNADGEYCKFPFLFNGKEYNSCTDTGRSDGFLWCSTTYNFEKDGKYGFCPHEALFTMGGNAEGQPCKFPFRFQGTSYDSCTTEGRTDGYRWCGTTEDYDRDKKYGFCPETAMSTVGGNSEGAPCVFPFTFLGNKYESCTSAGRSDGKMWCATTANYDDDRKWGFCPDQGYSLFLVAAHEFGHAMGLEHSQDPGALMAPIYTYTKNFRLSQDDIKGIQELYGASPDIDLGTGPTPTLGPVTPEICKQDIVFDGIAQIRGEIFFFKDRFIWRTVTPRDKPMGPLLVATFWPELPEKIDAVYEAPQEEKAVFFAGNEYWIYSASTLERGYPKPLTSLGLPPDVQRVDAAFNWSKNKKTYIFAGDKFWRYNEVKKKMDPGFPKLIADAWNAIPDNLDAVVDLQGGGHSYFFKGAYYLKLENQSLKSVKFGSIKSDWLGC
Chain of Genome polyprotein (P29990 2492-3391 limits assumed): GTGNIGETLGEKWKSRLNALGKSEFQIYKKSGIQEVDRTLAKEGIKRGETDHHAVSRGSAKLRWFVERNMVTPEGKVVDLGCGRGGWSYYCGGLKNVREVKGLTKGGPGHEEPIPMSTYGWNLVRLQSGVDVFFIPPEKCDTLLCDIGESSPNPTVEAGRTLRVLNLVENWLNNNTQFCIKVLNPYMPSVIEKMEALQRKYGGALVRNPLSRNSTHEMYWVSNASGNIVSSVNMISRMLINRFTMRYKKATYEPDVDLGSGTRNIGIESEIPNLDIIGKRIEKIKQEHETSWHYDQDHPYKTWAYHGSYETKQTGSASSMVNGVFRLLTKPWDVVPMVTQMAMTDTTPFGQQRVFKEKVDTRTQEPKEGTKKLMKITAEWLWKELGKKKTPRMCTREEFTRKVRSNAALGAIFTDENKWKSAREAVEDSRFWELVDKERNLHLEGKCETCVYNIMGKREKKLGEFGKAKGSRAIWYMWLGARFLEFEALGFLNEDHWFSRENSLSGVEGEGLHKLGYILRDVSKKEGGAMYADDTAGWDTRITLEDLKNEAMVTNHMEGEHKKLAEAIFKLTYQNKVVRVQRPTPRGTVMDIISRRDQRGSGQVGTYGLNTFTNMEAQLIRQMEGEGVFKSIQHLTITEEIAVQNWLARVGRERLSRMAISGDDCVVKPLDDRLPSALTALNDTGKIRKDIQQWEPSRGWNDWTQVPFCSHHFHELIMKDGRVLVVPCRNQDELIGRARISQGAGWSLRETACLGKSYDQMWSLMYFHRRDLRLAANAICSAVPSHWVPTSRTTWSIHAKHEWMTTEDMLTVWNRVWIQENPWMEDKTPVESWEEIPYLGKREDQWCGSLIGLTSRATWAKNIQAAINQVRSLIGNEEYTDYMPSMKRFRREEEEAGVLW

## Cc1ccccc1-c1nc(CS(=O)(=O)CC(=O)N(C)C2CCCCC2)c(C)o1
[1]
  EC50: 1.26 µM (active)

## Nc1c(C(=O)Nc2nccs2)sc2nc(-c3cccs3)cc(C(F)(F)F)c12
[2]
  EC50: > 99 µM (inactive)
[3]
  EC50: > 99 µM (inactive)
[4]
  EC50: 2.76 µM (active)

## Oc1[nH]c2ccccc2c1N=Nc1ccccc1
[5]
  EC50: 7.37 µM (inconclusive)
[6]
  EC50: 18.3 µM (inconclusive)
[2]
  EC50: > 99 µM (inactive)
[3]
  EC50: 54.6 µM (inactive)

## O=C(/C=C/c1ccc2c(c1)OCO2)Nc1cccnc1
[7]
  EC50: > 350 µM (not active)
[8]
  EC50: 6.64 µM (active)

## NC(=O)COc1ccc(/C=C2\C(=O)ON=C2c2ccccc2)cc1
[9]
  IC50: 67.7 µM (active)

## O=C(CCC(=O)N1CCN(c2ccc(O)cc2)CC1)c1cccs1
[10]
  IC50: 5.54 µM (active)

## O=C(CCS(=O)(=O)c1ccc(Br)cc1)N1CCN(c2ccccc2Cl)CC1
[1]
  EC50: 4.8 µM (active)

## COc1ccccc1N1CCN(C(=O)C2CCCN(S(=O)(=O)c3ccc4c(c3)oc(=O)n4C)C2)CC1 (stereo not drawn)
[11]
  IC50: > 20 µM (inactive)
[12]
  IC50: > 20 µM (inactive)
[13]
  IC50: > 20 µM (inactive)

## NC(=O)CC(NC(=O)Cc1ccc(Cl)cc1)c1ccc(NC2CCCC2)c([N+](=O)[O-])c1 (stereo not drawn)
[14]
  IC50: 29.9 µM (active)
[15]
  IC50: > 100 µM (inactive)
[16]
  IC50: 38.8 µM (active)

## N#C/C(=C\c1ccc(O)c(O)c1)C(=O)N1CCc2ccccc21
[10]
  IC50: 11.9 µM (active)
[14]
  IC50: 0.798 µM (active)
[15]
  IC50: > 100 µM (inactive)
[16]
  IC50: 45.9 µM (active)

## Cc1nonc1NC(=O)CSc1nnc(-c2ccoc2C)n1-c1cccc(Cl)c1
[1]
  EC50: 7.83 µM (active)

## ON=CNc1cccc2nonc12
[7]
  EC50: > 350 µM (not active)
[8]
  EC50: 98.8 µM (active)

## O=[N+]([O-])c1ccc([S+]([O-])Cc2ccccc2)c([N+](=O)[O-])c1 (stereo not drawn)
[17]
  AC50: 2.17 µM (active)

## COc1ccc(N2CCN(C(=O)c3ccc(Br)cc3)CC2)c([N+](=O)[O-])c1
[17]
  AC50: 0.691 µM (active)
